Laboratory results taken from the NIST ThermoML archive (doi:10.1016/j.fluid.2014.04.002).

Experiment: refractive index (Na D-line) (dimensionless); xn = mol fraction of the nth substance listed
Conditions: 101 kPa, Liquid, Standard Abbe refractometry

COCCOCCOCCOCCOC [2,5,8,11,14-pentaoxapentadecane] + CCOC(=O)C(C)O
refractive index
Conditions | x2 = 0 | x2 = 0.0999 | x2 = 0.1999 | x2 = 0.2999 | x2 = 0.3998 | x2 = 0.4999 | x2 = 0.6001 | x2 = 0.6998 | x2 = 0.8001 | x2 = 0.9
288.15 K | 1.43553 | 1.43413 | 1.43253 | 1.43141 | 1.42997 | 1.42831 | 1.42648 | 1.42438 | 1.42214 | 1.41886
293.15 K | 1.43338 | 1.43195 | 1.4304 | 1.42925 | 1.42782 | 1.42614 | 1.42431 | 1.42219 | 1.4199 | 1.41662
298.15 K | 1.43123 | 1.42983 | 1.42826 | 1.42712 | 1.42566 | 1.42398 | 1.42212 | 1.41995 | 1.41764 | 1.41436
303.15 K | 1.42906 | 1.42761 | 1.42612 | 1.42496 | 1.42351 | 1.4218 | 1.41993 | 1.41778 | 1.41537 | 1.41208
308.15 K | 1.42697 | 1.42558 | 1.42399 | 1.4228 | 1.42135 | 1.41964 | 1.41774 | 1.41556 | 1.41312 | 1.4098
313.15 K | 1.42447 | 1.42319 | 1.42182 | 1.42059 | 1.41916 | 1.41744 | 1.41552 | 1.41332 | 1.41084 | 1.40749
318.15 K | 1.42206 | 1.42095 | 1.41972 | 1.41848 | 1.41703 | 1.41528 | 1.41335 | 1.41108 | 1.40853 | 1.40517
323.15 K | 1.41985 | 1.4188 | 1.41762 | 1.41635 | 1.41488 | 1.41315 | 1.41119 | 1.40889 | 1.40622 | 1.40288

CCOC(=O)C(C)O (stereo not drawn) [DL-ethyl lactate] + C1CCOC1
refractive index
Conditions | x1 = 0.1002 | x1 = 0.2001 | x1 = 0.3001 | x1 = 0.4001 | x1 = 0.4999 | x1 = 0.5999 | x1 = 0.6999 | x1 = 0.7999 | x1 = 0.8997 | x1 = 1
288.15 K | 1.41059 | 1.41119 | 1.4118 | 1.41241 | 1.41298 | 1.41349 | 1.41393 | 1.41431 | 1.41475 | 1.41537
293.15 K | 1.40801 | 1.40867 | 1.40932 | 1.40998 | 1.41058 | 1.41112 | 1.41157 | 1.41197 | 1.41242 | 1.41307
298.15 K | 1.40539 | 1.40614 | 1.40687 | 1.40756 | 1.40816 | 1.40871 | 1.40922 | 1.40965 | 1.41017 | 1.41076
303.15 K | 1.40277 | 1.40359 | 1.40438 | 1.4051 | 1.40571 | 1.40628 | 1.40684 | 1.4073 | 1.40787 | 1.40843
308.15 K | 1.40015 | 1.40102 | 1.40187 | 1.40264 | 1.40326 | 1.40392 | 1.40445 | 1.40493 | 1.40546 | 1.4061
313.15 K | 1.3975 | 1.39842 | 1.39936 | 1.40014 | 1.4008 | 1.40149 | 1.40205 | 1.40255 | 1.4031 | 1.40374
318.15 K | 1.39481 | 1.39578 | 1.39672 | 1.39755 | 1.39831 | 1.39899 | 1.3996 | 1.40015 | 1.4007 | 1.40136
323.15 K | 1.39211 | 1.39315 | 1.39416 | 1.39503 | 1.39583 | 1.39655 | 1.3972 | 1.39778 | 1.39834 | 1.39898

CCOC(=O)C(C)O (stereo not drawn) [DL-ethyl lactate] + CC(O)CO
refractive index
Conditions | x1 = 0.1 | x1 = 0.2 | x1 = 0.3 | x1 = 0.3999 | x1 = 0.4998 | x1 = 0.599 | x1 = 0.6999 | x1 = 0.7994 | x1 = 0.8997 | x1 = 1
288.15 K | 1.43169 | 1.42919 | 1.42688 | 1.42476 | 1.42287 | 1.42116 | 1.41959 | 1.41814 | 1.41676 | 1.41537
293.15 K | 1.42994 | 1.42736 | 1.42499 | 1.4228 | 1.42086 | 1.4191 | 1.41747 | 1.41597 | 1.41452 | 1.41307
298.15 K | 1.42819 | 1.42554 | 1.42309 | 1.42085 | 1.41883 | 1.41701 | 1.41532 | 1.41377 | 1.41227 | 1.41076
303.15 K | 1.42642 | 1.42369 | 1.42118 | 1.41886 | 1.41679 | 1.41491 | 1.41316 | 1.41155 | 1.40999 | 1.40843
308.15 K | 1.42461 | 1.42181 | 1.41924 | 1.41688 | 1.41475 | 1.41282 | 1.41102 | 1.40935 | 1.40773 | 1.4061
313.15 K | 1.42279 | 1.41992 | 1.41729 | 1.41488 | 1.4127 | 1.41071 | 1.40884 | 1.40711 | 1.40542 | 1.40374
318.15 K | 1.42098 | 1.41801 | 1.41529 | 1.41282 | 1.41055 | 1.4085 | 1.40659 | 1.40481 | 1.40309 | 1.40136
323.15 K | 1.41918 | 1.41615 | 1.41337 | 1.41082 | 1.40849 | 1.40637 | 1.40437 | 1.40252 | 1.40073 | 1.39898

CCOC(=O)C(C)O (stereo not drawn) [DL-ethyl lactate] + OCCCO
refractive index
Conditions | x1 = 0.1001 | x1 = 0.2001 | x1 = 0.3 | x1 = 0.3998 | x1 = 0.4996 | x1 = 0.5997 | x1 = 0.7 | x1 = 0.8 | x1 = 0.8997 | x1 = 1
288.15 K | 1.43819 | 1.43549 | 1.43282 | 1.43021 | 1.42764 | 1.4251 | 1.42262 | 1.42017 | 1.41776 | 1.41537
293.15 K | 1.43668 | 1.43388 | 1.43111 | 1.4284 | 1.42573 | 1.42312 | 1.42055 | 1.41803 | 1.41554 | 1.41307
298.15 K | 1.43517 | 1.43227 | 1.4294 | 1.42658 | 1.42383 | 1.42114 | 1.41851 | 1.41592 | 1.41336 | 1.41076
303.15 K | 1.43362 | 1.43062 | 1.42766 | 1.42476 | 1.42192 | 1.41914 | 1.4164 | 1.41371 | 1.41107 | 1.40843
308.15 K | 1.43214 | 1.42902 | 1.42592 | 1.42292 | 1.41996 | 1.41713 | 1.41427 | 1.41152 | 1.40882 | 1.4061
313.15 K | 1.43065 | 1.42743 | 1.42421 | 1.42111 | 1.41805 | 1.41506 | 1.41215 | 1.40932 | 1.40654 | 1.40374
318.15 K | 1.42914 | 1.4258 | 1.42249 | 1.41923 | 1.41608 | 1.41301 | 1.41004 | 1.40715 | 1.40428 | 1.40136
323.15 K | 1.42761 | 1.42417 | 1.42075 | 1.41741 | 1.41415 | 1.41097 | 1.40792 | 1.40493 | 1.40198 | 1.39898
